{"source": "paper PMC5333804", "about": "“Comparison of pancreatic lipase inhibitory isoflavonoids from unripe and ripe fruits of Cudrania tricuspidata” (PLoS ONE, 2017)", "key": {"[1]": {"target": "T1, porcine pancreatic lipase (Sus scrofa, UniProt P00591)", "T1 construct": "gene PNLIP", "T1 sequence (P00591 1-450)": "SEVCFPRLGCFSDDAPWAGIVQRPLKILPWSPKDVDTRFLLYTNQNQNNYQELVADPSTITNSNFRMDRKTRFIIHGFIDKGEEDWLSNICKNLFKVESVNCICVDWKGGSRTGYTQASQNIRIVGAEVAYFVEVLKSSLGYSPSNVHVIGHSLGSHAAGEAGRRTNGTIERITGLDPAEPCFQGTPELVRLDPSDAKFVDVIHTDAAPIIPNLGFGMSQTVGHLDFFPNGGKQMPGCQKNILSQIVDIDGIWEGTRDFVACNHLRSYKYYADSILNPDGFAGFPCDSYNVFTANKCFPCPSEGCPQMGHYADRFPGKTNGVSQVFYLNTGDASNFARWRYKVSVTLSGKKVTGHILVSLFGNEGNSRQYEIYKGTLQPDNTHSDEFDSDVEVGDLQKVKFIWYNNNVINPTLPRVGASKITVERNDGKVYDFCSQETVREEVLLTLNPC", "assay": "p-nitrophenyl butyrate hydrolysis assay, % inhibition at […]", "format": "biochemical"}, "[2]": {"target": "T1, porcine pancreatic lipase", "assay": "p-nitrophenyl butyrate hydrolysis assay; Lineweaver-Burk analysis", "format": "biochemical"}}, "data": [{"smiles": "O=c1c(-c2ccc(O)cc2)coc2cc(O)cc(O)c12", "note": "[compound 1, genistein]", "values": [{"measurement": "inhibition at 100 µM", "setting": "[1]", "result": 60.7, "unit": "%"}]}, {"smiles": "CC(C)=CCc1c(O)cc2occ(-c3ccc(O)cc3)c(=O)c2c1O", "note": "[compound 9, wighteone]", "values": [{"measurement": "inhibition at 100 µM", "setting": "[1]", "result": 65.7, "unit": "%"}]}, {"smiles": "CC(C)=CCc1c(O)c(CC=C(C)C)c2occ(-c3ccc(O)c(O)c3)c(=O)c2c1O", "note": "[compound 12, 5,7,3',4'-tetrahydroxy-6-8-diprenylisoflavone]", "values": [{"measurement": "inhibition at 100 µM", "setting": "[1]", "result": 92.8, "unit": "%"}]}, {"smiles": "CC1(C)C=Cc2c(cc3occ(-c4ccc(O)c(O)c4)c(=O)c3c2O)O1", "note": "[compound 15, 5,3',4'-trihydroxy-6'',6''-dimethylpyrano-[2'',3'';7,6]isoflavone]", "values": [{"measurement": "inhibition at 100 µM", "setting": "[1]", "result": "> 50", "unit": "%"}]}, {"smiles": "CC(C)=CCc1c2c(c(O)c3c(=O)c(-c4ccc(O)cc4)coc13)C=CC(C)(C)O2", "note": "[compound 16, scandenone]", "values": [{"measurement": "inhibition at 100 µM", "setting": "[1]", "result": "> 50", "unit": "%"}]}, {"smiles": "CC1(C)C=Cc2c(cc(O)c3c(=O)c(-c4ccc(O)cc4)coc23)O1", "note": "[compound 17, derrone]", "values": [{"measurement": "inhibition at 100 µM", "setting": "[1]", "result": 68.2, "unit": "%"}]}, {"smiles": "CC1(C)C=Cc2c(cc(O)c3c(=O)c(-c4ccc(O)c(O)c4)coc23)O1", "note": "[compound 19, 5,3',4'-trihydroxy-2\", 2\"-dimethylpyrano (5\",6\":7,8) isoflavone]", "values": [{"measurement": "IC50", "setting": "[2]", "result": 16.8, "unit": "µM"}]}]}
